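Exposure lasted 48 hours, with cells grown in 96-well plates and compounds tested at five concentrations. GI50 is the concentration that inhibits growth by half. The concentration for full growth arrest is given as TGI.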
Experiments:
Experiment in all cases: growth of human tumour cells (NCI), 48 h
[1] = test system: UACC-257 melanoma
[2] = test system: HCT-15 colon
[3] = test system: SK-MEL-5 melanoma
[4] = test system: SNB-75 CNS
[5] = test system: IGROV1 ovarian
[6] = test system: 786-0 renal
[7] = test system: SF-268 CNS
[8] = test system: UO-31 renal
[9] = test system: ACHN renal
[10] = test system: KM12 colon
[11] = test system: TK-10 renal
[12] = test system: HCC-2998 colon
[13] = test system: M14 melanoma
[14] = test system: NCI-H460 lung
[15] = test system: HOP-92 NSCLC
[16] = test system: UACC-62 melanoma
[17] = test system: SNB-19 CNS
[18] = test system: CCRF-CEM leukemia
[19] = test system: SR leukemia
[20] = test system: LOX IMVI melanoma
[21] = test system: SK-MEL-2 melanoma
[22] = test system: RXF 393 renal
[23] = test system: BT-549 breast
[24] = test system: U251 CNS
[25] = test system: A549 NSCLC
[26] = test system: HT29 colon
[27] = test system: OVCAR-3 ovarian
[28] = test system: K-562 leukemia
[29] = test system: SF-539 CNS
[30] = test system: HOP-62 NSCLC
[31] = test system: T-47D breast
[32] = test system: OVCAR-8 ovarian
[33] = test system: HL-60(TB) leukemia
[34] = test system: SK-OV-3 ovarian
[35] = test system: RPMI-8226 leukemia
[36] = test system: MDA-MB-231 breast
[37] = test system: SW-620 colon
[38] = test system: OVCAR-5 ovarian
[39] = test system: CAKI-1 renal
[40] = test system: NCI-H522 lung
[41] = test system: SN12C renal
[42] = test system: HS 578T breast
[43] = test system: OVCAR-4 ovarian
[44] = test system: HCT-116 colon
[45] = test system: NCI-H226 lung
[46] = test system: COLO 205 colon
[47] = test system: MALME-3M melanoma
[48] = test system: MDA-MB-435
[49] = test system: NCI/ADR-RES ovarian
[50] = test system: EKVX NSCLC
[51] = test system: MOLT-4 leukemia
[52] = test system: SK-MEL-28 melanoma
[53] = test system: PC-3 prostate
[54] = test system: SF-295 CNS
[55] = test system: A498 renal
[56] = test system: MCF7 breast
[57] = test system: DU-145 prostate

**Q.** With `O=C1[C@H]2Cc3c([nH]c4ccccc34)[C@@H](c3ccc(Br)cc3)N2C(=O)CN1C1CCN(CC2CCCCC2)CC1` as the compound, how does the GI50 [1] read?
**A.** 20.2 µM

**Q.** And the TGI [1]?
**A.** 42.7 µM

**Q.** What about the GI50 [2] of the same compound?
**A.** 16 µM

**Q.** And the TGI [2]?
**A.** 30.8 µM

**Q.** What about the GI50 [3] of the same compound?
**A.** 16.1 µM

**Q.** What about the TGI [3] of the same compound?
**A.** 29.9 µM

**Q.** And the GI50 [4]?
**A.** 87.1 µM

**Q.** And the TGI [4]?
**A.** > 100 µM

**Q.** And the GI50 [5]?
**A.** 13.4 µM

**Q.** And the TGI [5]?
**A.** 26.7 µM

**Q.** What about the GI50 [6] of the same compound?
**A.** 15.6 µM

**Q.** And the TGI [6]?
**A.** 29.4 µM

**Q.** And the GI50 [7]?
**A.** 15.3 µM

**Q.** What about the TGI [7] of the same compound?
**A.** 31.9 µM

**Q.** And the GI50 [8]?
**A.** 11.7 µM

**Q.** And the TGI [8]?
**A.** 24.2 µM

**Q.** And the GI50 [9]?
**A.** 15.3 µM

**Q.** And the TGI [9]?
**A.** 28.7 µM

**Q.** And the GI50 [10]?
**A.** 17 µM

**Q.** What about the TGI [10] of the same compound?
**A.** 34 µM

**Q.** What about the GI50 [11] of the same compound?
**A.** 17.8 µM

**Q.** And the TGI [11]?
**A.** 35.1 µM

**Q.** What about the GI50 [12] of the same compound?
**A.** 14.4 µM

**Q.** What about the TGI [12] of the same compound?
**A.** 28 µM

**Q.** And the GI50 [13]?
**A.** 16.9 µM

**Q.** What about the TGI [13] of the same compound?
**A.** 32.9 µM

**Q.** What about the GI50 [14] of the same compound?
**A.** 18.8 µM

**Q.** And the TGI [14]?
**A.** 36.1 µM

**Q.** What about the GI50 [15] of the same compound?
**A.** 6.7 µM

**Q.** And the TGI [15]?
**A.** 21.1 µM

**Q.** And the GI50 [16]?
**A.** 16 µM

**Q.** And the TGI [16]?
**A.** 29.9 µM

**Q.** And the GI50 [17]?
**A.** 15.9 µM

**Q.** And the TGI [17]?
**A.** 31.5 µM

**Q.** And the GI50 [18]?
**A.** 24.1 µM

**Q.** And the TGI [18]?
**A.** 56.5 µM

**Q.** What about the GI50 [19] of the same compound?
**A.** 16 µM

**Q.** And the TGI [19]?
**A.** 46.1 µM

**Q.** What about the GI50 [20] of the same compound?
**A.** 18.6 µM

**Q.** And the TGI [20]?
**A.** 34.3 µM

**Q.** And the GI50 [21]?
**A.** 23 µM

**Q.** And the TGI [21]?
**A.** 58.7 µM

**Q.** What about the GI50 [22] of the same compound?
**A.** 11.9 µM

**Q.** And the TGI [22]?
**A.** 24.2 µM

**Q.** And the GI50 [23]?
**A.** 15.5 µM

**Q.** What about the TGI [23] of the same compound?
**A.** 29.6 µM

**Q.** And the GI50 [24]?
**A.** 16.4 µM

**Q.** What about the TGI [24] of the same compound?
**A.** 34 µM

**Q.** What about the GI50 [25] of the same compound?
**A.** 18.3 µM

**Q.** What about the TGI [25] of the same compound?
**A.** 39.9 µM

**Q.** What about the GI50 [26] of the same compound?
**A.** 14.8 µM

**Q.** What about the TGI [26] of the same compound?
**A.** 35 µM

**Q.** What about the GI50 [27] of the same compound?
**A.** 15.3 µM

**Q.** What about the TGI [27] of the same compound?
**A.** 29.5 µM

**Q.** And the GI50 [28]?
**A.** 16.5 µM

**Q.** What about the TGI [28] of the same compound?
**A.** 53.1 µM

**Q.** And the GI50 [29]?
**A.** 15.5 µM

**Q.** What about the TGI [29] of the same compound?
**A.** 29.5 µM

**Q.** What about the GI50 [30] of the same compound?
**A.** 16.2 µM

**Q.** And the TGI [30]?
**A.** 34.6 µM

**Q.** And the GI50 [31]?
**A.** 13.9 µM

**Q.** And the TGI [31]?
**A.** > 100 µM

**Q.** And the GI50 [32]?
**A.** 22.5 µM

**Q.** What about the TGI [32] of the same compound?
**A.** 55.5 µM

**Q.** What about the GI50 [33] of the same compound?
**A.** 16.4 µM

**Q.** What about the TGI [33] of the same compound?
**A.** 41.8 µM

**Q.** And the GI50 [34]?
**A.** 21.9 µM

**Q.** And the TGI [34]?
**A.** 59.3 µM

**Q.** And the GI50 [35]?
**A.** 23.4 µM

**Q.** And the TGI [35]?
**A.** 53.4 µM

**Q.** And the GI50 [36]?
**A.** 15.2 µM

**Q.** And the TGI [36]?
**A.** 30.1 µM

**Q.** And the GI50 [37]?
**A.** 16.5 µM

**Q.** What about the TGI [37] of the same compound?
**A.** 31.8 µM

**Q.** And the GI50 [38]?
**A.** 15.1 µM

**Q.** What about the TGI [38] of the same compound?
**A.** 28.8 µM

**Q.** What about the GI50 [39] of the same compound?
**A.** 14.6 µM

**Q.** What about the TGI [39] of the same compound?
**A.** 28.2 µM

**Q.** And the GI50 [40]?
**A.** 17.9 µM

**Q.** And the TGI [40]?
**A.** 39.9 µM

**Q.** And the GI50 [41]?
**A.** 15.8 µM

**Q.** And the TGI [41]?
**A.** 30.9 µM

**Q.** What about the GI50 [42] of the same compound?
**A.** 18.4 µM

**Q.** What about the TGI [42] of the same compound?
**A.** 45.1 µM

**Q.** What about the GI50 [43] of the same compound?
**A.** 17.9 µM

**Q.** And the TGI [43]?
**A.** 37.1 µM

**Q.** What about the GI50 [44] of the same compound?
**A.** 13.6 µM

**Q.** What about the TGI [44] of the same compound?
**A.** 27.2 µM

**Q.** What about the GI50 [45] of the same compound?
**A.** 30.4 µM

**Q.** What about the TGI [45] of the same compound?
**A.** > 100 µM

**Q.** And the GI50 [46]?
**A.** 14.3 µM

**Q.** And the TGI [46]?
**A.** 30.2 µM

**Q.** What about the GI50 [47] of the same compound?
**A.** 13.8 µM

**Q.** What about the TGI [47] of the same compound?
**A.** 28.3 µM

**Q.** What about the GI50 [48] of the same compound?
**A.** 16.9 µM

**Q.** And the TGI [48]?
**A.** 31.6 µM

**Q.** And the GI50 [49]?
**A.** 16.7 µM

**Q.** And the TGI [49]?
**A.** 34.1 µM

**Q.** And the GI50 [50]?
**A.** 13.8 µM

**Q.** And the TGI [50]?
**A.** 27.4 µM

**Q.** And the GI50 [51]?
**A.** 20.4 µM

**Q.** What about the TGI [51] of the same compound?
**A.** 81.6 µM

**Q.** What about the GI50 [52] of the same compound?
**A.** 16.4 µM

**Q.** And the TGI [52]?
**A.** 30.6 µM

**Q.** What about the GI50 [53] of the same compound?
**A.** 12.4 µM

**Q.** And the TGI [53]?
**A.** 25.5 µM

**Q.** What about the GI50 [54] of the same compound?
**A.** 17.5 µM

**Q.** And the TGI [54]?
**A.** 31.9 µM

**Q.** And the GI50 [55]?
**A.** 13.7 µM

**Q.** And the TGI [55]?
**A.** 26.9 µM

**Q.** What about the GI50 [56] of the same compound?
**A.** 10.1 µM

**Q.** And the TGI [56]?
**A.** 22.3 µM

**Q.** And the GI50 [57]?
**A.** 17.6 µM

**Q.** And the TGI [57]?
**A.** 33.6 µM
